Our source for the IC50 and EC50 values is patent publication US20210147343A1 (priority 2018, published 2021).

Where two headings read alike, the source gives them in different places.

For orientation: IC50 means the concentration that gives 50% inhibition. By EC50 is commonly meant the concentration needed to bring the measured effect to its halfway point.

In test [1] the target is T1, mu opioid receptor (MOR) (Homo sapiens, UniProt P35372). The test is described as follows: MOR cAMP antagonist assay. It counts as cell-based. Also noted: host or cells: CHO-K1. The source says: MOR cAMP Antagonist Assay
T1 sequence (P35372 whole entry): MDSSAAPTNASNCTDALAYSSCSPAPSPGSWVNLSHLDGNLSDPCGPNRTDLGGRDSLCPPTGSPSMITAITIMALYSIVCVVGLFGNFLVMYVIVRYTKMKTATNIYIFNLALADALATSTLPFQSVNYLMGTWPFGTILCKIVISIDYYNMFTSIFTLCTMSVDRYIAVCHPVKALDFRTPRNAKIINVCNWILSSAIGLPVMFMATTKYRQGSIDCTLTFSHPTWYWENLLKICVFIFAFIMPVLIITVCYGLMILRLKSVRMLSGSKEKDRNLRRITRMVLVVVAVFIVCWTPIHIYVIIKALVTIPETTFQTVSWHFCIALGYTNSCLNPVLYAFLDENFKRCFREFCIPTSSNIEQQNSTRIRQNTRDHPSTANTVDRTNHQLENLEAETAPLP
Test [2] concerns the target T1, mu opioid receptor (MOR). In words: MOR GTPγS agonist assay. Type of test: biochemical. Also noted: host or cells: CHO-K1. The source says:
Membranes obtained from the stable cell lines over-expressing MOR were subjected to GTPγS assay using SPA beads (Perkin Elmer, Cat #RPNQ0001).

For test [3], the target named is T2, kappa opioid receptor (KOR) (Homo sapiens, UniProt P41145).
T2 construct: host or cells: CHO-K1
T2 sequence (P41145 whole entry): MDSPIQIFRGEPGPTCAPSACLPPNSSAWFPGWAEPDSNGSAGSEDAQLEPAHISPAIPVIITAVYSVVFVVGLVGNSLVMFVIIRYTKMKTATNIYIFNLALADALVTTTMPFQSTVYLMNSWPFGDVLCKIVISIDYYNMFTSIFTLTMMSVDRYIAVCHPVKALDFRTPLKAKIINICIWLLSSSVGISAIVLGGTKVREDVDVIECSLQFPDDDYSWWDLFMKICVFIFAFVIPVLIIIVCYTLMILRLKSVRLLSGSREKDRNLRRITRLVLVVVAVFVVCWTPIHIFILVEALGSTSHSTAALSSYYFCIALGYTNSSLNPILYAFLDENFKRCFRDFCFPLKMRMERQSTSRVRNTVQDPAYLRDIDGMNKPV
The test is described as follows: cell-based. Conditions: kOR cAMP IC50, CHO-K1 cells expressing kOR; after activation with dynorphin B. The source says:
KOR cAMP Antagonist Assay

The target in test [4] is T1, mu opioid receptor (MOR). The test is described as follows: MOR cAMP agonist assay.
The mark [5] stands for this setting: membranes of CHO cells over-expressing MOR, SPA beads, read-out: MOR GTPγS EC50.

Regarding `CN(C)[C@H](CNC(=O)c1ccc(Cl)c(Cl)c1)Cc1ccc(O)cc1Cl` [Compound C-7, (S)-3,4-Dichloro-N-(3-(2-chloro-4-hydroxyphenyl)-2-(dimethylamino)propyl)benzamide], the IC50 in test [1] is under 100 nM.
Turning to `CNC(=O)c1ccc(C[C@@H](CNC(=O)c2ccc(C)cc2C)N(C)C)cc1F` [Compound C-40], the half-maximal inhibitory concentration (IC50) in test [1] is under 100 nM; in test [3], over 1000 nM. Besides, in test [2] (setting [5]), the half-maximal effective concentration (EC50) is under 100 nM.
In turn, `Cc1cc(O)cc(C)c1C[C@@H](CNC(=O)c1nccc2ccccc12)N(C)C` [Compound C-34] yielded an IC50 in test [1] of under 100 nM. The half-maximal effective concentration (EC50) in test [2] (setting [5]) was under 100 nM.
Take `CN(C)[C@H](CNC(=O)c1ccccc1-c1ccccc1)Cc1ccc(O)cc1` [Compound C-66, (S)—N-(2-(dimethylamino)-3-(4-hydroxyphenyl)propyl)-[1,1′-biphenyl]-2-carboxamide]: the concentration for half-maximal inhibition (IC50) is over 1000 nM in test [1] (CHO-K1 cells expressing mOR, after activation with DAMGO at the EC80, read-out: MOR cAMP IC50) and 100 to 1000 nM in test [3]. This compound yielded a 50% effective concentration (EC50) in test [2] of over 1000 nM.
As for `CCN(CC)[C@H](CNC(=O)c1ccc(Cl)c(Cl)c1)Cc1ccc2[nH]ncc2c1` [Compound C-64], the IC50 in test [1] was under 100 nM. Moreover, the half-maximal effective concentration (EC50) in test [2] (setting [5]) was under 100 nM.
For the compound `Cc1cc(O)cc(C)c1C[C@@H](CNC(=O)c1ccc(C(F)(F)F)cc1)N(C)C` [Compound C-32, (S)—N-(2-(dimethylamino)-3-(4-hydroxy-2,6-dimethylphenyl)propyl)-4-(trifluoromethyl)benzamide], in test [1], the IC50 is 100 to 1000 nM. Besides, in test [2] (setting [5]), the EC50 was under 100 nM.
Take `Cc1cc(O)ccc1C[C@@H](CNC(=O)[C@@H]1C[C@]1(C)c1ccccc1)N(C)C` [Compound B-48, (1R,2S)—N—((S)-2-(dimethylamino)-3-(4-hydroxy-2-methylphenyl)propyl)-2-methyl-2-phenylcyclopropane-1-carboxamide]: the IC50 in test [1] and in test [3] was under 100 nM in each case. In test [4], this compound displayed an EC50 of over 1000 nM.
Take `Cc1ccc(C(=O)NC[C@H](Cc2ccc(O)cc2Cl)N(C)C)cc1C` [Compound C-2, (S)—N-(3-(2-Chloro-4-hydroxyphenyl)-2-(dimethylamino)propyl)-3,4-dimethylbenzenamide]: the IC50 in test [1] is under 100 nM.
As to `CN1Cc2cc(O)ccc2C[C@H]1CNC(=O)c1ccc(Cl)c(Cl)c1` [Compound C-54], the IC50 in test [1] is under 100 nM. In test [2] (setting [5]), the EC50 was under 100 nM.
Consider `CN(C)[C@H](CNC(=O)c1cc(F)c(Cl)c(F)c1)Cc1ccc(O)cc1Cl` [Compound C-1], for which the concentration for half-maximal inhibition (IC50) in test [1] was under 100 nM.
Regarding `Cc1cc(O)cc(C)c1C[C@@H](CNC(=O)c1ccc(C(F)(F)F)c(F)c1)N(C)C` [Compound C-30], the 50% inhibitory concentration (IC50) in test [1] is under 100 nM. The EC50 in test [2] (setting [5]) is under 100 nM.
As to `Cc1cc(O)cc(C)c1C[C@@H](CNC(=O)c1cc2ccccc2cn1)N(C)C` [Compound C-35], in test [1], the IC50 is under 100 nM. In test [2] (setting [5]), the 50% effective concentration (EC50) is under 100 nM.
Regarding `Cc1cc(O)cc(C)c1C[C@@H](CNC(=O)c1ccc(Cl)c(Cl)c1)N(C)C` [Compound C-24, (S)-3,4-dichloro-N-(2-(dimethylamino)-3-(4-hydroxy-2,6-dimethylphenyl)propyl)benzamide], the IC50 in test [1] and in test [3] was under 100 nM in each case. Also, the concentration giving a half-maximal response (EC50) in test [2] (setting [5]) was under 100 nM.
In the case of `CC(=O)Oc1cc(C)c(C[C@@H](CNC(=O)c2ccc(Cl)c(Cl)c2)N(C)C)c(C)c1` [Compound C-56, (S)-4-(3-(3,4-dichlorobenzamido)-2-(dimethylamino)propyl)-3,5-dimethylphenyl acetate], in test [1], the IC50 is under 100 nM.
Regarding `O=C(NC[C@@H]1Cc2ccc(O)cc2CN1)c1ccc(Cl)c(Cl)c1` [Compound C-60, (S)-3,4-dichloro-N-((7-hydroxy-1,2,3,4-tetrahydroisoquinolin-3-yl)methyl)benzamide], the concentration for half-maximal inhibition (IC50) in test [1] was under 100 nM. For the same compound, the concentration for a half-maximal effect (EC50) in test [2] (setting [5]) was under 100 nM.
For the compound `CN(C)[C@H](CNC(=O)c1ccc(Br)c(Cl)c1)Cc1ccc(O)cc1Cl` [Compound C-8, (S)-4-bromo-3-chloro-N-(3-(2-chloro-4-hydroxyphenyl)-2-(dimethylamino)propyl)benzamide], in test [1], the concentration for half-maximal inhibition (IC50) is under 100 nM.
As to `Cc1cc(O)cc(C)c1C[C@@H](CNC(=O)[C@@H]1C[C@]1(C)c1ccccc1)N(C)C` [Compound B-47, (1R,2S)—N—((S)-2-(dimethylamino)-3-(4-hydroxy-2,6-dimethylphenyl)-propyl)-2-methyl-2-phenylcyclopropane-1-carboxamide], in test [1], the IC50 was under 100 nM. The compound also showed an EC50 in test [4] of under 100 nM.
As to `Cc1ccc(C(=O)NC[C@H](Cc2c(C)cc(O)cc2C)N(C)C)cc1C` [Compound C-28], in test [1], the IC50 was under 100 nM. In test [2] (setting [5]), the EC50 was under 100 nM.
`Cc1cc(O)cc(C)c1C[C@@H](CNC(=O)c1ccc2occc2c1)N(C)C` [Compound C-31] had an IC50 in test [1] of under 100 nM. Besides, the EC50 in test [2] (setting [5]) was under 100 nM.
In the case of `CN(C)[C@H](CNC(=O)[C@@H]1C[C@]1(C)c1ccccc1)Cc1ccc(O)c(F)c1` [Compound B-30, (1R,2S)—N—((S)-2-(dimethylamino)-3-(3-fluoro-4-hydroxyphenyl)propyl)-2-methyl-2-phenylcyclopropane-1-carboxamide], the IC50 in test [1] and in test [3] was under 100 nM throughout.
In the case of `O=C(NC[C@H](Cc1ccc2[nH]ncc2c1)N1CCCC1)c1ccc(Cl)c(Cl)c1` [Compound C-59, (S)—N-(3-(1H-indazol-5-yl)-2-(pyrrolidin-1-yl)propyl)-3,4-dichlorobenzamide], the IC50 in test [1] was under 100 nM. In addition, in test [2] (setting [5]), the EC50 was 100 to 1000 nM.
On the same counts, the results for `Cc1cc(O)cc(C)c1C[C@@H](CNC(=O)c1ccc2ccccc2c1)N(C)C` [Compound C-33] are under 100 nM and under 100 nM.
With `Cc1cc(C[C@@H](CNC(=O)[C@@H]2C[C@]2(C)c2ccccc2)N(C)C)ccc1O` [Compound B-42, (1R,2S)—N—((S)-2-(dimethylamino)-3-(4-hydroxy-3-methylphenyl)propyl)-2-methyl-2-phenylcyclopropane-1-carboxamide], the IC50 was under 100 nM in test [1] and 100 to 1000 nM in test [3]. The 50% effective concentration (EC50) in test [4] is under 100 nM.
Take `CN(C)[C@H](CNC(=O)c1cccc(Cl)c1)Cc1ccc(O)cc1Cl` [Compound C-22]: the values for the IC50 in test [1] and in test [3] were over 1000 nM and 100 to 1000 nM, respectively. Besides, in test [2] (setting [5]), the EC50 was under 100 nM.
As to `CN(C)[C@H](CNC(=O)[C@@H]1C[C@]1(C)c1ccccc1)Cc1ccc(O)c(Cl)c1` [Compound B-55, (1R,2S)—N—((S)-3-(3-chloro-4-hydroxyphenyl)-2-(dimethylamino)-propyl)-2-methyl-2-phenylcyclopropane-1-carboxamide], the IC50 in test [1] and in test [3] was under 100 nM throughout.
Take `C[C@H](CC(=O)NC[C@H](Cc1ccc2c(c1)CC(=O)N2)N(C)C)c1ccccc1` [Compound A-22, (R)—N—((S)-2-(dimethylamino)-3-(2-oxoindolin-5-yl)propyl)-3-phenylbutanamide]: the half-inhibitory concentration (IC50) in test [1] was under 100 nM. In test [2] (setting [5]), the EC50 was under 100 nM.
The compound `CN(C)[C@H](CNC(=O)c1ccc(Cl)c(Cl)c1)Cc1ccc(O)c(Cl)c1` [Compound C-61, (S)-3,4-dichloro-N-(3-(3-chloro-4-hydroxyphenyl)-2-(dimethylamino)propyl)benzamide] showed a half-maximal inhibitory concentration (IC50) in test [1] of under 100 nM. In addition, the EC50 in test [2] (setting [5]) was under 100 nM.
On to `Cc1cc(C[C@@H](CNC(=O)[C@@H]2C[C@]2(C)c2ccccc2)N(C)C)cc(C)c1O` [Compound B-36, (1R,2S)—N—((S)-2-(dimethylamino)-3-(4-hydroxy-3,5-dimethylphenyl)propyl)-2-methyl-2-phenylcyclopropane-1-carboxamide], for which the IC50 in test [1] and in test [3] was under 100 nM in each case.
On to `Cc1cc(O)cc(C)c1C[C@@H](CNC(=O)c1ccc(Cl)c(C(F)(F)F)c1)N(C)C` [Compound C-27], for which, in test [1], the IC50 is under 100 nM. Also, the EC50 in test [2] (setting [5]) was under 100 nM.
As to `Cc1cc(O)cc(C)c1C[C@@H](CNC(=O)c1cc(Cl)c(Cl)cc1F)N(C)C` [Compound C-57, (S)-4,5-dichloro-N-(2-(dimethylamino)-3-(4-hydroxy-2,6-dimethylphenyl)propyl)-2-fluorobenzamide], in test [1], the 50% inhibitory concentration (IC50) is under 100 nM. In addition, the EC50 in test [2] (setting [5]) was under 100 nM.
As to `CN(C)[C@H](CNC(=O)[C@@H]1C[C@]1(C)c1ccccc1)Cc1ccc(O)cc1F` [Compound B-31, (1R,2S)—N—((S)-2-(dimethylamino)-3-(2-fluoro-4-hydroxyphenyl)propyl)-2-methyl-2-phenylcyclopropane-1-carboxamide], the IC50 in test [1] and in test [3] was under 100 nM in each case. The EC50 in test [4] was under 100 nM.
As to `CC(CC(=O)NC[C@H](Cc1ccc2c(c1)CC(=O)N2)N(C)C)c1ccccc1` (stereo in doubt) [Compound A-23, (S)—N—((S)-2-(dimethylamino)-3-(2-oxoindolin-5-yl)propyl)-3-phenylbutanamide], the IC50 in test [1] (read-out: MOR cAMP IC50, CHO-K1 cells expressing mOR, after activation with DAMGO at the EC80) is under 100 nM. Moreover, the EC50 in test [2] (setting [5]) was under 100 nM.
For `CNC(=O)c1ccc(C[C@@H](CNC(=O)c2ccc(Cl)c(Cl)c2)N(C)C)cc1F` [Compound C-39], the IC50 in test [1] was under 100 nM. Further, the EC50 in test [2] (setting [5]) is under 100 nM.
`Cc1cc(O)cc(C)c1C[C@@H](CNC(=O)c1ccc(C(F)(F)F)c(Cl)c1)N(C)C` [Compound C-26] displayed a concentration for half-maximal inhibition (IC50) in test [1] of under 100 nM. Also, the EC50 in test [2] (setting [5]) is under 100 nM.
